Patent US20240076297A1, “ADENOSINE A2A AND A2B RECEPTOR DUAL ANTAGONISTS FOR IMMUNO-ONCOLOGY” (Merck Sharp & Dohme LLC, priority 2020, published 2024)

target: human A2A adenosine receptor (Homo sapiens (Human), UniProt P29274); assay: A2A binding affinity using radioligand binding, Method (A); conditions: Method (A): filtration radioligand binding, [3H] SCH58261, membranes expressing human A2A
From the text: Method (A) describes the procedure used to measure A2A binding affinity using radioligand binding. Method (B) describes the procedure used to measure A2A binding affinity using SPA technology. The method used to measure A2B binding affinity is also described below. The method used to determine the A2A IC50 value reported for each compound in the table is indicated next to the reported value. The A2B IC50 value measured using the A2B binding affinity assay is shown in the table next to the compound under the corresponding A2A value.
The A2A receptor affinity binding assay measured the amount of binding of a tritiated ligand with high affinity for the A2A adenosine receptor to membranes made from HEK293 or CHO cells recombinantly expressing the human A2A adenosine receptor, in the presence of varying concentrations of a compound of the invention. The data were generated using either filtration binding or a homogenous scintillation proximity assay (SPA).
Method (A): Measurement of A2A Binding Affinity Using Radioligand Binding
148 μL (5 μg/mL) membranes (Perkin Elmer, Cat. No. RBHA2aM400UA) and 2 μL compounds of the invention to be tested (test compound) were transferred to individual wells of a 96-well polypropylene assay plate and incubated for 15 to 30 min at room temperature. [^3H] SCH58261 ((7-(2-phenylethyl)-5-amino-2-(2-furyl)-pyrazolo-[4,3-e]-1,2,4-triazolo[1,5-c]pyrimidine)) was diluted in assay buffer (50 mM Tris pH 7.4, 10 mM MgCl2, 0.005% Tween20) to a concentration of 4 nM and 50 μL transferred to each well of the assay plate. To define total and non-specific binding, wells containing 1% DMSO and 1 μM ZM241385 (Tocris Bioscience, Cat. No. 1036) respectively, were also included. The assay plate was incubated at room temperature for 60 min with agitation. Using a FilterMate Harvester® (Perkin Elmer), the contents of the assay plate were filtered through a UniFilter-96® PEI coated plate (Perkin Elmer Cat. No. 6005274 or 6005277). Filtering was achieved by aspirating the contents of the assay plate for 5 sec, then washing and aspirating the contents three times with ice-cooled wash buffer (50 mM Tris-HCl pH 7.4, 150 mM NaCl) and allowing the vacuum manifold to dry the plate for 30 sec. The filter plate was incubated for at least 1 h at 55° C. and allowed to dry. The bottom of the filter plate was sealed with backing tape. 40 μL Ultima Gold™ (Perkin Elmer, Cat. No. 6013329) was added to each well of the filter plate and the top of the plate was sealed with TopSeal-A PLUS® clear plate seal (Perkin Elmer, Cat. No. 6050185). The plate was incubated for at least 20 min, and then the amount of radioactivity remaining in each well was determined using a TopCount® (Perkin Elmer) scintillation counter. After normalization to total and non-specific binding, the percent effect at each compound concentration was calculated. The plot of percent effect versus the log of compound concentration was analyzed electronically using a 4-parameter logistic fit based on the Levenberg-Marquardt algorithm to generate IC50 values.

Chain of human A2A adenosine receptor (P29274 whole entry): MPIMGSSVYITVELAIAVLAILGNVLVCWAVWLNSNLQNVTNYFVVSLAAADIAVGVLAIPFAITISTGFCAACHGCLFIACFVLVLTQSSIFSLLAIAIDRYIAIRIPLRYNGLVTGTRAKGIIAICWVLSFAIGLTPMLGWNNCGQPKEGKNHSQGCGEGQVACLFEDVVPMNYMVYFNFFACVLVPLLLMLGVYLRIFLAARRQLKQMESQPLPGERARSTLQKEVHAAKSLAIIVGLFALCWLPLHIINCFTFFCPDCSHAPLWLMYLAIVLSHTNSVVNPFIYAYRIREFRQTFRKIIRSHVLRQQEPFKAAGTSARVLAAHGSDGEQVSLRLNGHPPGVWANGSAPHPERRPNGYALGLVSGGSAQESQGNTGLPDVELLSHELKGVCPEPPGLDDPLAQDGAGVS

SMILES | IC50 [nM]
COc1cccc2c1nc(N)n1nc(COC3CCc4c(nnn4C4CC(F)(F)C4)C3)nc21 (single isomer, unassigned) [Example 2.2A, (S or R)-2-(((1-(3,3-difluorocyclobutyl)-4,5,6,7-tetrahydro-1H-benzo[d][1,2,3]triazol-5-yl)oxy)methyl)-7-methoxy-[1,2,4]triazolo[1,5-c]quinazolin-5-amine] | 3.4
COc1cccc2c1nc(N)n1nc(COC3CCc4c(nnn4C4CC(F)(F)C4)C3)nc21 (single isomer, unassigned) [Example 2.2B, (R or S)-2-(((1-(3,3-difluorocyclobutyl)-4,5,6,7-tetrahydro-1H-benzo[d][1,2,3]triazol-5-yl)oxy)methyl)-7-methoxy-[1,2,4]triazolo[1,5-c]quinazolin-5-amine] | 0.6
COc1cccc2c1nc(N)n1nc(CCC3CCc4c(nnn4C(C)C)C3)nc21 (single isomer, unassigned) [Example 5.2A, (S or R)-2-(2-(1-isopropyl-4,5,6,7-tetrahydro-1H-benzo[d][1,2,3]triazol-5-yl)ethyl)-7-methoxy-[1,2,4]triazolo[1,5-c]quinazolin-5-amine] | 0.7
COc1cccc2c1nc(N)n1nc(CCC3CCc4c(nnn4C4CC(F)(F)C4)C3)nc21 (single isomer, unassigned) [Example 5.3A, (S or R)-2-(2-(1-(3,3-difluorocyclobutyl)-4,5,6,7-tetrahydro-1H-benzo[d][1,2,3]triazol-5-yl)ethyl)-7-methoxy-[1,2,4]triazolo-[1,5-c]quinazolin-5-amine] | 0.9
COc1cc(F)cc2c1nc(N)n1nc(CCC3CCc4nn(C(C)C)cc4C3)nc21 (single isomer, unassigned) [Example 5.4B, (R or S)-9-fluoro-2-(2-(2-isopropyl-4,5,6,7-tetrahydro-2H-indazol-5-yl)ethyl)-7-methoxy-[1,2,4]triazolo[1,5-c]quinazolin-5-amine] | 5.5
COc1cccc2c1nc(N)n1nc(CCC3CCc4nn(C(C)C)cc4C3)nc21 (single isomer, unassigned) [Example 7.2A, (S or R)-2-(2-(2-isopropyl-4,5,6,7-tetrahydro-2H-indazol-5-yl)ethyl)-7-methoxy-[1,2,4]triazolo[1,5-c]quinazolin-5-amine] | 2.5
COc1cccc2c1nc(N)n1nc(CCC3CCc4nn(C(C)C)cc4C3)nc21 (single isomer, unassigned) [Example 7.2B, (R or S)-2-(2-(2-isopropyl-4,5,6,7-tetrahydro-2H-indazol-5-yl)ethyl)-7-methoxy-[1,2,4]triazolo[1,5-c]quinazolin-5-amine] | 2.3
COc1cc(F)cc2c1nc(N)n1nc(CCC3CCn4c(cnc4C4CC(F)(F)C4)C3)nc21 (single isomer, unassigned) [Example 7.3A, (S or R)-2-(2-(3-(3,3-difluorocyclobutyl)-5,6,7,8-tetrahydroimidazo-[1,5-a]pyridin-7-yl)ethyl)-9-fluoro-7-methoxy-[1,2,4]triazolo[1,5-c]-quinazolin-5-amine] | 2.8
COc1cc(F)cc2c1nc(N)n1nc(CCC3CCn4c(cnc4C4CC(F)(F)C4)C3)nc21 (single isomer, unassigned) [Example 7.3B, (R or S)-2-(2-(3-(3,3-difluorocyclobutyl)-5,6,7,8-tetrahydroimidazo-[1,5-a]pyridin-7-yl)ethyl)-9-fluoro-7-methoxy-[1,2,4]triazolo[1,5-c]-quinazolin-5-amine] | 4.6
Nc1nc2c(F)cc(F)cc2c2nc(CCC3CCn4c(cnc4C4CC(F)(F)C4)C3)nn12 (single isomer, unassigned) [Example 7.4A, (S or R)-2-(2-(3-(3,3-difluorocyclobutyl)-5,6,7,8-tetrahydroimidazo-[1,5-a]pyridin-7-yl)ethyl)-7,9-difluoro-[1,2,4]triazolo[1,5-c]-quinazolin-5-amine] | 31.6
COc1cccc2c1nc(N)n1nc(CCC3CCn4c(cnc4C4CC(F)(F)C4)C3)nc21 (single isomer, unassigned) [Example 7.5A, (S or R)-2-(2-(3-(3,3-difluorocyclobutyl)-5,6,7,8-tetrahydroimidazo-[1,5-a]pyridin-7-yl)ethyl)-7-methoxy-[1,2,4]triazolo[1,5-c]-quinazolin-5-amine] | 2.2
COc1cccc2c1nc(N)n1nc(CCC3CCn4c(cnc4C4CC(F)(F)C4)C3)nc21 (single isomer, unassigned) [Example 7.5B, (R or S)-2-(2-(3-(3,3-difluorocyclobutyl)-5,6,7,8-tetrahydroimidazo-[1,5-a]pyridin-7-yl)ethyl)-7-methoxy-[1,2,4]triazolo[1,5-c]-quinazolin-5-amine] | 0.5
COc1cc(F)cc2c1nc(N)n1nc(CCC3CCc4c(nnn4C4CC(F)(F)C4)C3)nc21 (single isomer, unassigned) [Example 7.6A, (S or R)-2-(2-(1-(3,3-difluorocyclobutyl)-4,5,6,7-tetrahydro-1H-benzo[d][1,2,3]triazol-5-yl)ethyl)-9-fluoro-7-methoxy-[1,2,4]-triazolo[1,5-c]quinazolin-5-amine] | 1
COc1cc(F)cc2c1nc(N)n1nc(CCC3CCc4c(nnn4C4CC(F)(F)C4)C3)nc21 (single isomer, unassigned) [Example 7.6B, (R or S)-2-(2-(1-(3,3-difluorocyclobutyl)-4,5,6,7-tetrahydro-1H-benzo[d][1,2,3]triazol-5-yl)ethyl)-9-fluoro-7-methoxy-[1,2,4]-triazolo[1,5-c]quinazolin-5-amine] | 4.2
COc1cc(F)cc2c1nc(N)n1nc(CCC3CCc4c(cnn4C(C)C)C3)nc21 (single isomer, unassigned) [Example 7.7A, (S or R)-9-fluoro-2-(2-(1-isopropyl-4,5,6,7-tetrahydro-1H-indazol-5-yl)ethyl)-7-methoxy-[1,2,4]triazolo[1,5-c]quinazolin-5-amine] | 5.5
COc1cc(F)cc2c1nc(N)n1nc(CCC3CCc4c(cnn4C(C)C)C3)nc21 (single isomer, unassigned) [Example 7.7B, (R or S)-9-fluoro-2-(2-(1-isopropyl-4,5,6,7-tetrahydro-1H-indazol-5-yl)ethyl)-7-methoxy-[1,2,4]triazolo[1,5-c]quinazolin-5-amine] | 2.6
COc1cccc2c1nc(N)n1nc(CCC3CCc4c(cnn4C(C)C)C3)nc21 (single isomer, unassigned) [Example 7.8A, (S or R)-2-(2-(1-isopropyl-4,5,6,7-tetrahydro-1H-indazol-5-yl)-ethyl)-7-methoxy-[1,2,4]triazolo[1,5-c]quinazolin-5-amine] | 2.1
COc1cccc2c1nc(N)n1nc(CCC3CCc4c(cnn4C(C)C)C3)nc21 (single isomer, unassigned) [Example 7.8B, (R or S)-2-(2-(1-isopropyl-4,5,6,7-tetrahydro-1H-indazol-5-yl)ethyl)-7-methoxy-[1,2,4]triazolo[1,5-c]quinazolin-5-amine] | 2.4
COc1cc(F)cc2c1nc(N)n1nc(CC3CC3c3ccc(C(C)(C)N)cc3)nc21 (single isomer, unassigned) [Example 8.4A, 2-(((1S, 2R or 1R,2S)-2-(4-(2-aminopropan-2-yl)phenyl)-cyclopropyl)methyl)-9-fluoro-7-methoxy-[1,2,4]triazolo-[1,5-c]quinazolin-5-amine] | 10.2
COc1cccc2c1nc(N)n1nc(CC3CC3c3ccc(C(C)(C)N)cc3)nc21 (single isomer, unassigned) [Example 8.5A, 2-(((1S,2R or 1R,2S)-2-(4-(2-aminopropan-2-yl)phenyl)-cyclopropyl)methyl)-7-methoxy-[1,2,4]triazolo-[1,5-c]quinazolin-5-amine] | 4.7
COc1cccc2c1nc(N)n1nc(CC3CC3c3ccc(C(C)(C)O)cc3)nc21 (single isomer, unassigned) [Example 8.6B, 2-(4-((1R,2S or 1S,2S)-2-((5-amino-7-methoxy-[1,2,4]triazolo-[1,5-c]quinazolin-2-yl)methyl)cyclopropyl)phenyl)propan-2-ol] | 0.3
